According to patent publication US9750761B2, “LDH inhibitors as treatment for fibrosis and fibrotic-related disorders” (University of Rochester, priority 2014, dated 2017):

How the values were obtained:
[1] = test system: primary human lung fibroblasts; assay: Radiation-induced myofibroblast differentiation (α-SMA, LDHA Western blot); format: cell-based; details: SB431542 2.5 μM from 1 hour before 7 Gy, 5 days post radiation
Experimental: Cell Culture and Irradiations: Fibroblasts were cultured in Eagle's minimum essential media (Life Technologies, Gaithersburg, Md.) supplemented with 10% FBS (Sigma Aldrich, St. Louis, Mo.), 2 mM L-Glutamine, antibiotic and antimycotic (Gibco, Carlsbad, Calif.) at 37° C. with 7% CO2. Cells were irradiated with a ^137Cs γ-ray source at approximately 2.70 cGy/min dose rate at indicated doses. Human recombinant TGF-β1 (R&D systems, Minneapolis, Minn.) was used at 1 ng/ml. […] TGF-β1 receptor 1 was inhibited using SB431542 (Sigma Aldrich) at 2.5 μM starting 1 hour prior to irradiations.
Western Blotting: Cell lysates were run on SDS-PAGE under reducing conditions and probed for expression of α-SMA (Sigma Aldrich), LDHA (Abcam, Cambridge, Mass.). Glyceraldehyde 3-phosphate dehydrogenase (Abcam) was used as a loading control.

[2] = test system: primary human lung fibroblasts; assay: Alamar blue assay; format: cell-based; details: 72 hours
Experimental: Alamar blue assay: Fibroblasts were cultured with and without TGF-β and/or gossypol for 72 hours and subsequently incubated with Alamar blue (Invitrogen, Grand Island, N.Y.). Alamar blue incorporation was determined by spectrophotometric analysis per the manufacturer's protocol.
Based on the foregoing results, it was believed that gossypol inhibits endogenous LDH activity, thus reducing lactate production and subsequent lactate-dependent activation of latent TGF-β in the medium. To investigate the mechanism of action of gossypol, fibroblasts were first treated with TGF-β for 72 hours. Next, protein lysates were harvested and incubated with increasing concentrations of gossypol for one hour. The LDH activity of each lysate was then determined with a standardized LDH kinetic activity assay. […] Next, it was investigated whether gossypol could prevent the extracellular accumulation of lactate by treated fibroblasts. […] To confirm that gossypol inhibits extracellular accumulation of lactate, the rate of extracellular acidification was measured using the commercially available Seahorse Bioassay. […] To determine whether the effects of gossypol were dependent on toxic effects on the cells, the Alamar blue assay was utilized.

For `NC(=O)c1ccc(-c2nc(-c3ccc4c(c3)OCO4)c(-c3ccccn3)[nH]2)cc1` [SB431542], the “radiation-induced α-SMA expression” value [1] was “significantly attenuated radiation-induced α-SMA expression”.

In the case of `Cc1cc2c(C(C)C)c(O)c(O)c(C=O)c2c(O)c1-c1c(C)cc2c(C(C)C)c(O)c(O)c(C=O)c2c1O` [gossypol], the Alamar blue reduction ([2]; 1 mM gossypol) is reported as “no significant effect on Alamar blue reduction”, the Alamar blue reduction ([2]; 5 mM gossypol) is reported as “no significant effect on Alamar blue reduction” and the “decrease in Alamar blue reduction” value ([2]; 10 mM gossypol) is reported as 50%.
